Read-outs that look alike come from different tables or passages of the source. One block for each compound: values may come before it.
Legend:
SU-DHL5 = assay: Cell viability assay (CellTiter-Glo) in SU-DHL5; format: cell-based; settings: Homo sapiens
Experimental: (§1) CELL VIABILITY ASSAY. […] Cell viability was assayed at 72 hrs by addition of CellTiter-Glo Assay reagents according to the manufacturer's protocol (Promega), and luminescence measured using a F200 PRO microplate reader (TECAN). […] Excluding high-throughput drug screenings, viability assays were performed in at least triplicate and the data normalized to 1% vehicle-treated control wells. IC50 values were determined by nonlinear regression analysis using Prism software (Graphpad). Dilutions of compounds was performed using a TECAN D300e Digital Dispenser from 10 mM stocks. The BLISS calculation was determined using the Combenefit program as previously described by Di Veroli et al., Bioinformatics.

BAX = target: T1, BAX (Homo sapiens, UniProt Q07812); assay: BIM SAHB-BAX competition fluorescence polarization assay (FPA); format: binding; settings: FITC-BIM SAHBA2 50 nM, BAX 500 nM
T1 construct: serial dilutions of full-length BAX; made in house; host or cells: Escherichia coli
T1 sequence (Q07812 whole entry): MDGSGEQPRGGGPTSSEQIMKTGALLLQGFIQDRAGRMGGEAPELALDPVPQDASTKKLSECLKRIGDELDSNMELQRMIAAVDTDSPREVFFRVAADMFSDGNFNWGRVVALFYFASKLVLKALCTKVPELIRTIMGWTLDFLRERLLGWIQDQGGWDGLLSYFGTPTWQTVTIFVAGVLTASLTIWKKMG
Experimental: PRODUCTION OF RECOMBINANT BAX PROTEIN. […] BAX wild type was purified by size-exclusion chromatography in a buffer containing 20 mM HEPES pH 7.2, 150 mM KC1, 1 mM DTT. Superdex 75 10/300 GL and 200 10/300 GL (GE Healthcare) columns were used.
FLUORESCENCE POLARIZATION BINDING As SAYS. […] Firstly, direct binding isotherms were generated by incubating FITC-BIM SAHBA2 (50 nM) with serial dilutions of full-length BAX and fluorescence polarization was measured at 20 min on a F200 PRO microplate reader (TECAN). Subsequently, in competition assays, a serial dilution of small-molecule or acetylated BIM SAHBA2 (Ac-BIM SAHB) was combined with FITC-BIM SAHBA2 (50 nM), followed by the addition of recombinant protein at EC75 concentration, as determined by the direct binding assay (BAX: 500 nM). EC50 and IC50 values were calculated by nonlinear regression analysis of competitive binding curves using Graphpad Prism software.

OCI-AML3 = assay: Cell viability (CellTiter-Glo), OCI-AML3; format: cell-based, human; settings: OCI-AML3, 72 hrs
Experimental: as §1

SW480 = assay: Cell viability (CellTiter-Glo), SW480; format: cell-based, human; settings: SW480, 72 hrs
Experimental: as §1

COLO230 = assay: Cell viability (CellTiter-Glo), COLO230; format: cell-based, human; settings: COLO230, 72 hrs
Experimental: as §1

U937 = assay: Cell viability (CellTiter-Glo), U937; format: cell-based, human; settings: U937, 72 hrs
Experimental: as §1

BCL-w = target: T2, BCL-w (Homo sapiens, UniProt Q92843); settings: cited from earlier work
T2 sequence (Q92843 1-193): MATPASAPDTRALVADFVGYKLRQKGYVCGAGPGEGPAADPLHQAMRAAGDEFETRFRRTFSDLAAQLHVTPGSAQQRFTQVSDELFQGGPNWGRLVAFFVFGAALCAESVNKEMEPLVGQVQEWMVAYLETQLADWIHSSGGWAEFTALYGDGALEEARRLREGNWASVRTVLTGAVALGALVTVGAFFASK

BCL-XL = BCL-XL (Homo sapiens, UniProt Q07817); settings: cited from earlier work
BCL-XL, sequence (Q07817 whole entry): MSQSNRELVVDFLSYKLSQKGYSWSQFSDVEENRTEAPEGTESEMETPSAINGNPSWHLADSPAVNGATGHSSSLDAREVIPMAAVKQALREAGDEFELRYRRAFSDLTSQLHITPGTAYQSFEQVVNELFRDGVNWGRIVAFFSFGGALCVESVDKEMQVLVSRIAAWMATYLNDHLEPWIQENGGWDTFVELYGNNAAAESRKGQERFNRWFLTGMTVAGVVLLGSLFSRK

BCL-2 = BCL-2 (Homo sapiens, UniProt P10415); settings: cited from earlier work
BCL-2, sequence (P10415 whole entry): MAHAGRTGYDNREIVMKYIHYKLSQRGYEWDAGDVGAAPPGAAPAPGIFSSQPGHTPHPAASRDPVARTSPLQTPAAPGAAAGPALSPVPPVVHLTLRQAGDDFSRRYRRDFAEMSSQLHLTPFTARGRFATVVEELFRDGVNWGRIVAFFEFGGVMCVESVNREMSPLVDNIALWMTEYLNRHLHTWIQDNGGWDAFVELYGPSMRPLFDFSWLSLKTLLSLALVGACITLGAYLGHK

[1] = previously determined by Tse et al; cited from earlier work
solid tumor cell lines = assay: Cell viability, solid tumor cell lines of the 46-line panel; format: cell-based; settings: Homo sapiens, read-out: mean cell viability IC50
Experimental: as §1

[2] = BTSA1.2 and Navitoclax combination in vivo toxicity study; parameters: species or system CD1-IGS mice; settings: 200 mg/kg BTSA1.2, 100 mg/kg Navitoclax, oral daily for 7 days
Description: 6-8 weeks old CD1-IGS male mice were purchased from Charles River. […] Mice were monitored daily; body weight and peripheral blood counts were monitored at the indicated days.

SW480 xenograft = assay: SW480 tumor xenograft efficacy and pharmacodynamic study; format: in vivo, nu/nu nude mice; settings: 200 mg/kg BTSA1.2, 100 mg/kg Navitoclax, oral daily
Description: TUMOR XENOGRAFT STUDIES. 6-8 weeks old nu/nu nude male mice were purchased from Charles River. […] For efficacy the efficacy study, treatments started once tumors reached a volume of ˜200 mm^3. […] Body weight of mice were monitored during treatment. For the pharmacodynamic study, treatments started once tumors reached a volume of ˜400 mm^3, after 3 days of daily treatment mice were euthanized and tumors were collected for analysis. Ex-Vivo BHS PROFILING. SW480 xenograft vehicle and combination treated tumors, and COLO-1 and COLO-2 PDX tumors were analyzed by BH3 profiling under basal conditions. Single cells from tumors were isolated by mechanically pass them through a […] strainer filter with cold PBS. SW480 xenograft tumors: […] PDX tumors: […] Single cell suspensions were prepared in 1:1 JC-1-MEB buffer, as previously described, and were kept at room temperature for 10 min to allow for cell permeabilization and dye equilibration. After adding the cells to the 384-well plate, 2.0×10^4 cells/well, fluorescence was measured at 590 nm emission 545 nm excitation using the M1000 microplate reader (TECAN) at 30° C. every 15 min for a total of 2 hrs.

BAX:BCL-XL complexes = target: T3, BAX:BCL-XL complexes (Homo sapiens, UniProt Q07812); assay: BAX co-immunoprecipitation and immunoblotting; format: cell-based; settings: 4 hrs treatment
T3 construct: endogenous in cells; host or cells: BxPC-3, SW480, Calu-6
T3 sequence (Q07812 whole entry, one chain of several): as the sequence (Q07812 whole entry) above
Experimental: Protein lysates were obtained by cell lysis in 0.2% NP-40 buffer (50 mM Tris-HCL, 150 mM NaCl, 1 mM EDTA, 10% Glycerol, 0.2% NP-40, pH 7.50) Immunoprecipitation was performed in 600 mL of 400 μg of proteins, which was precleared by centrifugation followed by exposure to 12 μL (50% slurry) protein A/G beads (Santa Cruz) at 4° C. for 30 min. […] Samples were then exposed to 20 μL (50% slurry) protein A/G beads (Santa Cruz) at 4° C. for 2 hrs and later centrifuged and washed three times with 0.2% NP-40 buffer and boiled in loading buffer (Life Technologies). […] For visualization of proteins with Odyssey Infrared Imaging System (LI-COR Biosciences) membranes were blocked in Odyssey Blocking Buffer (LI-COR Biosciences). Primary antibodies were incubated overnight at 4° C. in a 1:1,000 dilution. After washes, membranes were incubated with an IRdye800-conjugated goat anti-rabbit IgG or IRdye800-conjugated goat anti-mouse IgG secondary antibodies (LI-COR Biosciences) in a 1:10,000 and 1:20,000 dilution, respectively.
After 2 hr, FBS was supplemented to a final concentration of 10%. […] The supernatants were isolated by centrifugation at 15,000×g for 10 min and the mitochondrial pellets solubilized in NP-40 lysis buffer (50 mM Tris-HCL pH 7.4, 150 mM NaCl, 5 mM MgCl2, 1 Mm EGTA, 10% Glycerol, 0.2% NP-40). […]

COLO-1 PDX = assay: COLO-1 patient-derived xenograft efficacy study; format: in vivo, NOD SCID mice; settings: 200 mg/kg BTSA1.2, 50 mg/kg Navitoclax, oral daily up to 18 days
Description: 6-8 weeks old NOD SCID male mice were purchased from Charles River. […] PDX characterization: mice were divided into two groups COLO-1 and COLO-2 (n=3) were divided into two groups. Tumor was collected once tumor reached a volume of ˜1,000 mm^3. […] Treatments started once tumors reached a volume of ˜200 mm^3. Tumor volume was monitored every 3-4 days by caliper measurements until the cessation of the experiment when tumors reached an ethically unacceptable size or after 18 days of daily treatment (whichever came first). Body weight of mice were monitored during treatment.

in vivo = settings: both, CD1-IGS, mouse, po
Experimental: MAXIMUM TOLERATED DOSE (MTD) AND IN VIVO TOXICITY STUDIES. […] Mice were monitored daily and body weight was monitored at the indicated days. After 14 days of the first treatment, mice were subject to euthanasia and necropsy (Histology and Comparative Pathology Facility, Albert Einstein College of Medicine) and tissues (e.g. spleen, liver, kidney, lung, heart) were harvested for fixation in 10% buffered formalin (Fisher Scientific) for pathology analysis. […] Blood counts were determined on a Forcyte Veterinary Hematology Analyzer (Oxford Science Inc.). […] Histological evaluation of tissues and necropsy performed by the Histology and Comparative Pathology Facility board-certified veterinary pathologist.

[3] = test system: leukemia and lymphoma cell lines; assay: cells; settings: Homo sapiens, 72 h, read-out: mean cell viability IC50
Experimental: as §1

[4] = Pharmacokinetic analysis of BTSA1.2 in mice; format: in vivo; settings: for AUC(0-inf): read-out: AUCinf_obs; for MRT inf: read-out: MRTINF_obs
Experimental: […] […]. ICR (CD-1) male mice were fasted at least 3 hrs and water was available ad libitum before the study. Animals were housed in a controlled environment, target conditions: temperature 18-29° C., relative humidity 30 to 70%. Temperature and relative humidity were monitored daily. […] Experiments performed at […] joint Biopharmacy Laboratory.

Calu-6 BAX KO cells = assay: Viability and caspase 3/7 in WT and CRISPR/Cas9 BAX KO Calu-6 cells; format: cell-based, human
Experimental: as §1
Assays were performed at least in triplicate.

[5] = SU-DHL-5, 72 hrs, read-out: Viability Inhibition- SU- DHL5- IC50
[6] = SU-DHL-5, 72 h, read-out: Viability Inhibition- SU- DHL5- IC50 (μM)
[7] = male, ICR (CD-1), mouse, IV 1 mg/kg, mice plasma, Mean
[8] = male, ICR (CD-1), mouse, PO 3 mg/kg, mice plasma, Mean

IC50 (SU-DHL5; [5]): > 25 µM | IC50 (BAX): 2.38 µM
Compound: CC1=NN(c2nc(-c3ccccc3)cs2)C(=O)C1=NNc1nccs1 [Compound 3]

Compound: Cc1c(-c2ccc(N3CCc4cccc(C(=O)Nc5nc6ccccc6s5)c4C3)nc2C(=O)O)cnn1CC12CC3CC(CC(C3)C1)C2 [Compound A-1331852]
single agent effect on cell viability (OCI-AML3): moderately potent as single agent | single agent effect on cell viability (SW480): potent | single agent effect on cell viability (COLO230): not effective | single agent effect on cell viability (U937): moderately potent as single agent

Compound: CN(C)CC[C@H](CSc1ccccc1)Nc1ccc(S(=O)(=O)NC(=O)c2ccc(N3CCN(Cc4ccccc4-c4ccc(Cl)cc4)CC3)cc2)cc1[N+](=O)[O-] [ABT-737]
affinity (BCL-w): < 1 mol/L | affinity (BCL-XL): < 1 mol/L | affinity (BCL-2): < 1 mol/L

IC50 (SU-DHL5; [5]): > 25 µM
Compound: CCOc1ccccc1NN=C1C(=O)N(c2nc(-c3ccccc3)cs2)N=C1C [BAM7, reference compound]

Compound: O=C(O)c1cccc(NN=C2C(=O)N(c3nc(-c4ccccc4)cs3)N=C2c2ccccc2)c1 [Compound 5]
IC50 (SU-DHL5; [6]): 2.8 µM | IC50 (BAX): 0.497 µM

Compound: CC1(C)CCC(c2ccc(Cl)cc2)=C(CN2CCN(c3ccc(C(=O)NS(=O)(=O)c4ccc(N[C@H](CCN5CCOCC5)CSc5ccccc5)c(S(=O)(=O)C(F)(F)F)c4)cc3)CC2)C1 [Navitoclax, 4-(4-{[2-(4-Chlorophenyl)-5,5-dimethyl-1-cyclohexen-1-yl]methyl}-1-pipera-zinyl)-N-[(4-{[(2R)-4-(4-morpholinyl)-1-(phenylsulfanyl)-2-butanyl]amino}-3-[(trifluoromethyl)sulfonyl]phenyl)sulfonyl]benzamide, reference compound]
MTD [1]: 100 mg/kg/po | IC50 (solid tumor cell lines; 72 hrs, solid tumor cell lines): > 10 µM | body weight, blood counts and organs [2]: lymphocyte, white blood cell and platelet counts reached levels below normal counts upon a single treatment | single agent effect on cell viability (SW480): resistant | tumor growth (SW480 xenograft): no significant efficacy in reducing tumor growth | BAX:BCL-XL complexes by BAX co-immunoprecipitation (BAX:BCL-XL complexes): disrupted BAX:BCL-XL complexes

Compound: Cc1nc(N/N=C2\C(=O)N(c3nc(-c4ccccc4)cs3)N=C2c2ccccc2)sc1C [BTSA1.2, 4-(2-(4,5-dimethylthiazol-2-yl)hydrazono)-5-phenyl-2-(4-phenyl-thiazol-2-yl)-2,4-dihydro-3H-pyrazol-3-one]
tumor growth (COLO-1 PDX): some PDX showed to respond to BTSA1.2 only treatment as their tumor growth was suppressed | necropsy finding (200 mg/kg BTSA1, 300 mg/kg BTSA1.2, oral gavage daily): die by kidney failure after 3 days of treatment | body weights and organ histology (BTSA1.2 up to 200 mg/kg oral): constant body weights and organs examined were between normal histologic limits | dose limiting toxicity (DLT) (oral daily for 5 days): 300 mg/kg | IC50 (solid tumor cell lines; 72 h): > 10 µM | MTD (in vivo): 200 mg/kg | body weight, blood counts and organs [2]: body weight and blood counts were measured in normal levels but reduction in white blood cells and lymphocytes counts was observed after repeated dosing | single agent effect on cell viability (SW480): resistant | IC50 (SU-DHL5; [6]): 0.23 µM | IC50 [3]: < 3 µM | tumor growth (SW480 xenograft): no significant efficacy in reducing tumor growth | IC50 (BAX): 0.109 µM | CL_obs ([4]; IV 1 mg/kg, mice plasma, Mean): 0.282 | VSS_obs ([4]; IV 1 mg/kg, mice plasma, Mean): 555.803 | bioavailability ([4]; male, ICR (CD-1), mouse, plasma, 3 mg/kg, oral administration, mice, read-out: oral bioavailability (% F)): ~50% | Cmax ([4]; male, ICR (CD-1), mouse, plasma, 3 mg/kg, oral administration, mice, read-out: peak concentration (Cmax)): ~8 µM | AUC ([4]; male, ICR (CD-1), mouse, plasma, 3 mg/kg, oral administration, mice, read-out: plasma exposure (AUC)): ~100 µM·h | half-life ([4]; male, ICR (CD-1), mouse, plasma, iv, 1 mg/kg, IV 1 mg/kg, mice plasma, Mean, read-out: T1/2 (converted)): 24.6 h | half-life ([4]; male, ICR (CD-1), mouse, plasma, po, 3 mg/kg, PO 3 mg/kg, mice plasma, Mean, read-out: T1/2 (converted)): 14.4 h | half-life ([4]; male, ICR (CD-1), mouse, plasma, po, 3 mg/kg, oral administration, read-out: half-life (T1/2) in mouse plasma (converted)): ~14 h | bioavailability ([4]; male, ICR (CD-1), mouse, plasma, PO 3 mg/kg vs IV 1 mg/kg, mice, read-out: F(%)): 49.2% | AUC(0-t) [4, 7]: 31900 ng·h/mL | Tmax [4, 7]: 2 h | AUC(0-inf) [4, 7]: 67700 ng·h/mL | Cmax ([4]; male, ICR (CD-1), mouse, IV 1 mg/kg, mice plasma, Mean, read-out: Cmax): 2670 ng/mL | MRT inf [4, 7]: 35.7 h | AUC(0-t) [4, 8]: 47000 ng·h/mL | Tmax [4, 8]: 3.33 h | AUC(0-inf) [4, 8]: 70000 ng·h/mL | Cmax ([4]; male, ICR (CD-1), mouse, PO 3 mg/kg, mice plasma, Mean, read-out: Cmax): 3690 ng/mL | MRT inf [4, 8]: 21.7 h | half-life (T1/2) in mouse plasma ([4]; oral administration): ~15 h

Compound: CN[C@@H]1C[C@H]2O[C@@](C)([C@@H]1OC)n1c3ccccc3c3c4c(c5c6ccccc6n2c5c31)C(=O)NC4 [staurosporine]
sensitivity of Calu-6 cells lacking BAX expression (Calu-6 BAX KO cells): still sensitive

Compound: O=C1/C(=N\Nc2nccs2)C(c2ccccc2)=NN1c1nc(-c2ccccc2)cs1 [BTSA1]
IC50 (SU-DHL5; [6]): 0.4 µM
